Where a name gives a salt, the structure may show the parent alone.
These compounds were tested on mice (assay: 2-phenyl-1,4-benzoquinone-induced writhing test in mice (analgesia)). Conditions: Mus musculus, sc, read-out: Dose (subcutaneous) [ED50], inhibition of writhing.
Assay type: in vivo

SMILES | ED50
CC(=O)n1nc(N2CCN(C)CC2)c2ccccc21 [1-Acetyl-3-(4-methyl-1-piperazinyl)-1H-indazole] | 2.1 mg/kg
CCC(=O)O[C@](Cc1ccccc1)(c1ccccc1)[C@H](C)CN(C)C [propoxyphene, reference compound] | 3.9 mg/kg
CN1CCN(c2n[nH]c3ccccc23)CC1 [3-(4-methyl-1-piperazinyl)-1H-indazole, 3-(4-Methyl-1-piperazinyl)-1H-indazole] | 0.04 mg/kg
c1ccc2c(N3CCNCC3)n[nH]c2c1 [3-(1-piperazinyl)-1H-indazole, 3-(1-Piperazinyl)-1H-indazole] | 0.9 mg/kg
CN1CCN(c2n[nH]c3ccc(Cl)cc23)CC1 [5-Chloro-3-(4-methyl-1-piperazinyl)-1H-indazole] | 6.8 mg/kg
CCn1nc(N2CCN(C)CC2)c2ccccc21 [1-ethyl-3-(4-methyl-1-piperazinyl)-1H-indazole] | 0.5 mg/kg

Same assay, conditions: Mus musculus, sc; mice, subcutaneous, 2-phenyl-1,4-benzoquinone-induced writhing; read-out: Dose (subcutaneous) [ED50], inhibition of writhing

SMILES | ED50
Cl.Cl.OCCN1CCN(c2n[nH]c3ccccc23)CC1 [3-[4-(2-Hydroxyethyl)-1-piperazinyl]-1H-indazole dihydrochloride] | 2 mg/kg
CN1CCN(c2nn(C(=O)c3ccccc3)c3cc(F)ccc23)CC1 [1-Benzoyl-6-fluoro-3-(4-methyl-1-piperazinyl)-1H-indazole] | 4.3 mg/kg
Fc1ccc(C(CCCN2CCN(c3n[nH]c4ccccc34)CC2)c2ccc(F)cc2)cc1 [3-[4-[4,4-Bis(4-fluorophenyl)butyl-1-piperazinyl]-1H-indazole hydrochloride] | 3.6 mg/kg
O=C1CC2(CCCC2)CC(=O)N1CCCCN1CCN(c2n[nH]c3ccccc23)CC1 [8-[4-[1-(1H-indazol-3-yl)-4-piperazinyl]butyl-8-azaspiro[4.5]decane-7,9-dione hemifumarate] | 0.07 mg/kg
CN1CCN(c2nn(CC3CC3)c3ccccc23)CC1 [1-Cyclopropylmethyl-3-(4-methyl-1-piperazinyl)-1H-indazole] | 1.5 mg/kg

What follows are compounds tested on mice (assay: climbing mice assay (apomorphine-induced climbing; antipsychotic activity)). Conditions: Mus musculus, ip, read-out: Antipsychotic Activity (Climbing Mice Assay) ED50.
Assay type: in vivo, CK-1 male mice
Description: Antipsychotic activity is determined in the climbing mice assay by methods similar to those described by P. Protais, et al., Psychopharmacol, 50, 1 (1976) and B. Costall, Eur. J. Pharmacol., 50, 39 (1978).
The subject CK-1 male mice (23-27 grams) are group-housed under standard laboratory conditions. The mice are individually placed in wire mesh stick cages (4"×4"×10") and are allowed one hour for adaptation and exploration of the new environment. Then apomorphine is injected subcutaneously at 1.5 mg/kg, a dose causing climbing in all subjects for 30 minutes. Compounds to be tested for antipsychotic activity are injected intraperitoneally 30 minutes prior to the apomorphine challenge at a screening dose of 10 mg/kg.
For evaluation of climbing, 3 readings are taken at 10, 20 and 30 minutes after apomorphine administration according to the following scale:
4 paws on bottom (no climbing)
2 paws on the wall (rearing)
4 paws on the wall (full climb)
Mice consistently climbing before the injection of apomorphine are discarded.
With full-developed apomorphine climbing, the animals are hanging onto the cage walls, rather motionless over longer periods of time. By contrast, climbs due to mere motor stimulation usually last only a few seconds.
The climbing scores are individually totaled (maximum score: 6 per mouse over 3 readings) and the total score of the control group (vehicle intraperitoneally-apomorphine subcutaneously) is set to 100%. ED50 values with 95% confidence limits, calculated by a linear regression analysis of some of the compounds of this invention are presented in Table II.

SMILES | ED50
CN1CCN(c2n[nH]c3cc(F)ccc23)CC1 [6-Fluoro-3-(4-methyl-1-piperazinyl)-1H-indazole] | 4.7 mg/kg
O=C(CCCN1CCC(O)(c2ccc(Cl)cc2)CC1)c1ccc(F)cc1 [haloperidol, reference compound] | 0.11 mg/kg
Cl.Fc1ccc2c(N3CCNCC3)n[nH]c2c1 [6-Fluoro-3-(1-piperazinyl)-1H-indazole Hydrochloride] | 6.4 mg/kg

Same assay, conditions: Mus musculus; male mice, ip 30 min before apomorphine 1.5 mg/kg sc; linear regression; read-out: Antipsychotic Activity (Climbing Mice Assay) ED50

SMILES | ED50
Fc1ccc(C(CCCN2CCN(c3n[nH]c4ccccc34)CC2)c2ccc(F)cc2)cc1 [3-[4-[4,4-Bis(4-fluorophenyl)butyl-1-piperazinyl]-1H-indazole hydrochloride] | 0.87 mg/kg
Cn1nc(N2CCN(CCCCN3C(=O)CC4(CCCC4)CC3=O)CC2)c2ccccc21 [8-[4-[1-(1-Methyl-1H-indazol-3-yl)-4-piperazinyl]butyl-8-azaspiro[4,5]decane-7,9-dione fumarate] | 7.3 mg/kg
O=C1CC2(CCCC2)CC(=O)N1CCCCN1CCN(c2n[nH]c3ccccc23)CC1 [8-[4-[1-(1H-indazol-3-yl)-4-piperazinyl]butyl-8-azaspiro[4.5]decane-7,9-dione hemifumarate] | 0.6 mg/kg
Cc1[nH]c2ccccc2c1CCCN1CCN(c2n[nH]c3ccccc23)CC1 [3-{4-[3-(2-Methylindol-3-yl)propyl]-1-piperazinyl}-1H-indazole hemifumarate] | 0.4 mg/kg
O=c1[nH]c2ccccc2n1CCCN1CCN(c2n[nH]c3cc(F)ccc23)CC1 [6-Fluoro-3-{4-[3-(1,3-dihydro-2-oxo-2H-benzimidazol-1-yl)propyl]-1-piperazinyl}-1H-indazole Hemifumarate] | 0.43 mg/kg

Reference: patent US5077405A, “3-(1-Substituted-4-piperazinyl)-1H-indazoles” (Hoechst-Roussel Pharmaceuticals Incorporated, priority 1990, dated 1991)
